Calls of active or inactive are those of the source. The calls are words filed in the database; no cut-off is given here.
Legend:
[1] = system: Human immunodeficiency virus 1; assay: microbe, parasite or virus in culture; conditions: Human immunodeficiency virus 1, SF2
[2] = system: Influenza A virus; assay: Antiviral activity against Influenza A virus H1N1 infected in MDCK cells assessed as inhibition of viral replication; assay type: functional, organism-based
[3] = system: Human alphaherpesvirus 1; assay: Antiviral activity against Herpes simplex virus 1 F infected in human embryonic lung cells assessed as inhibition of viral replication; assay type: functional, organism-based; conditions: Human alphaherpesvirus 1, strain F
[4] = system: Human betaherpesvirus 5; assay: Antiviral activity against Human cytomegalovirus AD169 infected in human embryonic lung cells assessed as reduction in viral yield; assay type: functional, organism-based; conditions: Human betaherpesvirus 5, AD169, lung
[5] = system: Human betaherpesvirus 5; assay: Antiviral activity against Human cytomegalovirus Davis infected in human embryonic lung cells assessed as reduction in viral yield; assay type: functional, organism-based; conditions: Human betaherpesvirus 5, Davis
[6] = system: Human respiratory syncytial virus; assay: Antiviral activity against RSV infected in human HeLa cells assessed as inhibition of viral replication
[7] = system: Rattus norvegicus; assay: Immunosuppressive activity in Sprague-Dawley rat KHL model assessed as percent cytotoxic T cells at 10 mg/kg, po administered once daily for 28 days by flow cytometry; assay type: functional, T-cell
[8] = system: Vaccinia virus; assay: Antiviral activity against Vaccinia virus infected in human embryonic lung cells assessed as reduction in viral yield measured after 3 days; assay type: functional, organism-based; conditions: Orthopoxvirus vaccinia, 72 h
[9] = system: Human papillomavirus type 16; assay: Antiviral activity against HPV-16 infected in Caski cells assessed as inhibition of viral replication after 3 days; assay type: functional, organism-based, Human papillomavirus 16; conditions: Human papillomavirus 16, Ca-Ski, 72 h
[10] = system: Vesicular stomatitis virus; assay: Antiviral activity against VSV infected in human embryonic lung cells assessed as inhibition of viral replication; assay type: functional, organism-based
[11] = system: Coxsackievirus; assay: Antiviral activity against Coxsackie B3 infected in african green monkey Vero cells assessed as inhibition of viral replication; assay type: functional, organism-based
[12] = system: Influenza A virus; assay: Antiviral activity against Influenza A virus H3N2 infected in MDCK cells assessed as inhibition of viral replication; assay type: functional, organism-based
[13] = system: Human papillomavirus type 16; assay: Antiviral activity against HPV-16 infected in Caski cells assessed as inhibition of viral replication after 7 days; assay type: functional, Human papillomavirus 16
[14] = system: SARS-CoV; assay: Antiviral activity against SARS coronavirus infected in african green monkey Vero cells assessed as inhibition of viral replication; assay type: functional, organism-based; conditions: Severe acute respiratory syndrome-related coronavirus
[15] = system: Human immunodeficiency virus 1; assay: microbe, parasite or virus in culture; conditions: Human immunodeficiency virus 1, 3B, MT4
[16] = system: Human alphaherpesvirus 1; assay: Antiviral activity against Herpes simplex virus 1 KOS infected in human embryonic lung cells assessed as inhibition of viral replication; assay type: functional, organism-based; conditions: Human alphaherpesvirus 1, KOS
[17] = system: Yellow fever virus; assay: Antiviral activity against Yellow fever virus 17D infected in african green monkey Vero cells assessed as inhibition of viral replication; assay type: functional, cell-based
[18] = system: Human alphaherpesvirus 2; assay: Antiviral activity against Herpes simplex virus 2 G infected in human embryonic lung cells assessed as inhibition of viral replication; assay type: functional, organism-based; conditions: Human alphaherpesvirus 2, strain G
[19] = system: Rattus norvegicus; assay: Immunosuppressive activity in Sprague-Dawley rat […] model assessed as percent T lymphocytes at 10 mg/kg, po administered once daily for 28 days by flow cytometry; assay type: functional
[20] = system: Influenza B virus; assay: Antiviral activity against influenza B virus infected in MDCK cells assessed as inhibition of viral replication; assay type: functional, organism-based
[21] = system: Human alphaherpesvirus 2; assay: Antiviral activity against Herpes simplex virus 2 Lyons infected in human embryonic lung cells assessed as inhibition of viral replication; assay type: functional, organism-based; conditions: Human alphaherpesvirus 2, Lyons
[22] = system: Hepatitis C virus; assay: Antiviral activity against HCV infected in human Huh 5.2 cells assessed as reduction in viral RNA level by luciferase reporter gene assay; assay type: functional, organism-based, Hepacivirus hominis; conditions: Huh-5-2
[23] = system: Human alphaherpesvirus 1; assay: Antiviral activity against Herpes simplex virus 1 McIntyre infected in human embryonic lung cells assessed as inhibition of viral replication; assay type: functional, organism-based; conditions: Human alphaherpesvirus 1, McIntyre
[24] = system: Rattus norvegicus; assay: Immunosuppressive activity in Sprague-Dawley rat […] model assessed as IgM level at 10 mg/kg, po administered once daily for 28 days by ELISA; assay type: functional
[25] = system: Rattus norvegicus; assay: Immunosuppressive activity in Sprague-Dawley rat […] model assessed as percent T-helper cells at 10 mg/kg, po administered once daily for 28 days by flow cytometry; assay type: functional
[26] = system: Human alphaherpesvirus 3; assay: Antiviral activity against VZV OKA infected in human embryonic lung cells assessed as inhibition of; assay type: functional, organism-based; conditions: Human alphaherpesvirus 3, OKA
[27] = system: Human alphaherpesvirus 2; assay: Antiviral activity against Herpes simplex virus 2 196 infected in human embryonic lung cells assessed as inhibition of viral replication; assay type: functional, organism-based; conditions: Human alphaherpesvirus 2, 196, lung
[28] = system: Bovine viral diarrhea virus 1; assay: Antiviral activity against BVDV infected in […] cells assessed as inhibition of viral replication; assay type: functional, organism-based; conditions: Bovine viral diarrhea virus isolates and strains
[29] = system: Feline coronavirus; assay: Antiviral activity against Feline coronavirus infected in CRFK assessed as inhibition of viral replication; assay type: functional, organism-based; conditions: Alphacoronavirus 1, CRFK
[30] = system: Human immunodeficiency virus 1; conditions: Human immunodeficiency virus 1, 3B
[31] = system: PBMC; assay: Cytotoxicity against human PBMC at 0.83 uM by MTT assay; assay type: cell-based
[32] = system: MT4; assay: Cytotoxicity against human MT4 cells at 0.83 uM by MTT assay; assay type: cell-based; conditions: mt4, 0.83 µM
[33] = system: Jurkat; assay: Immunosuppressive activity in human Jurkat cells assessed as inhibition of PHA-phorbol myristate acetate induced beta-galactosidase activity at 6.75 uM; assay type: functional, cell-based

For `C/C=C/C[C@@H](C)[C@@H](O)[C@H]1C(=O)N[C@@H](CC)C(=O)N(C)CC(=O)N(C)[C@@H](CC(C)C)C(=O)N[C@@H](C(C)C)C(=O)N(C)[C@@H](CC(C)C)C(=O)N[C@@H](C)C(=O)N[C@H](C)C(=O)N(C)[C@@H](CC(C)C)C(=O)N(C)[C@@H](CC(C)C)C(=O)N(C)[C@@H](C(C)C)C(=O)N1C` [CYCLOSPORINE], the IC50 [1] was 0.54 µM, the IC50 [2] was > 14.8 µM and the IC50 [3] was > 8.3 µM. The IC50 [4] was > 18.3 µM, the IC50 [5] was > 18.3 µM and the IC50 [6] was > 8.3 µM. The Activity [7] was 9.2%, the IC50 [8] was > 8.3 µM and the IC50 [9] was 0.4 µM. For the same molecule, the IC50 [10] was > 8.3 µM, the IC50 [11] was > 25 µM and the IC50 [12] was > 14.8 µM. The TC50 [13] was 0.3 µM, the IC50 [14] was > 8.3 µM and the IC50 [15] was > 0.83 µM. For the same molecule, the IC50 [16] was > 8.3 µM, the IC50 [17] was > 16.6 µM and the IC50 [18] was > 8.3 µM. The Activity [19] was 33.6%, the IC50 [20] was > 14.8 µM and the IC50 [21] was > 8.3 µM. The IC50 [22] was 2.3 µM, the IC50 [23] was > 8.3 µM and the deltaA [24] was 0.18. The Activity [25] was 23.1%, the IC50 [26] was 3.3 µM and the IC50 [27] was > 8.3 µM. The IC50 [28] was > 9.9 µM, the IC50 [29] was 1.5 µM and the IC50 [30] was 0.45 µM.
For `C/C=C/C[C@@H](C)[C@@H](O)[C@H]1C(=O)N[C@@H](CC)C(=O)N(C)CC(=O)N(C)[C@@H]([C@@H](C)CC)C(=O)N[C@@H](C(C)C)C(=O)N(C)[C@@H](CC(C)C)C(=O)N[C@@H](C)C(=O)N[C@H](C)C(=O)N(C)[C@@H](CC(C)C)C(=O)N(C)[C@@H](CC(C)C)C(=O)N(C)[C@@H](C(C)C)C(=O)N1C` [NIM811], the IC50 [1] was 0.5 µM, the Activity [31] was “Non-toxic” and the Activity [32] was “Non-toxic”. For the same molecule, the IC50 [15] was 0.31 µM, the inhibition [33] was “Active” and the IC50 [30] was 0.47 µM.
